Reference: the supplement of paper PMC13380429

How the values were obtained:
Settings in all cases: 72 h
[1] = system: Caco-2; assay: cell viability relative to DMSO; higher = less toxic
[2] = system: U2OS; assay: as above
[3] = system: HepG2; assay: as above
[4] = system: Vero E6; assay: as above
[5] = system: Calu-3; assay: as above
[6] = system: Caco-2; assay: drug sensitivity score (DSS) for viability; higher = more toxic; extreme values may be limits of the assay
[7] = system: U2OS; assay: as above
[8] = system: HepG2; assay: as above
[9] = system: Vero E6; assay: as above
[10] = system: Calu-3; assay: as above
[11] = system: Caco-2; assay: relative viability EC50 (midpoint between 100% and the lowest measured viability); higher = less toxic
[12] = system: U2OS; assay: as above
[13] = system: Vero E6; assay: as above
[14] = system: Calu-3; assay: as above
[15] = system: HepG2; assay: as above

Row | Structure (SMILES) | cell viability ([1]; 1 nM) [%] | cell viability ([1]; 10 nM) [%] | cell viability ([1]; 100 nM) [%] | cell viability ([1]; 1000 nM) [%] | cell viability ([1]; 10000 nM) [%] | cell viability ([2]; 1 nM) [%] | cell viability ([2]; 10 nM) [%] | cell viability ([2]; 100 nM) [%] | cell viability ([2]; 1000 nM) [%] | cell viability ([2]; 10000 nM) [%] | cell viability ([3]; 1 nM) [%] | cell viability ([3]; 10 nM) [%] | cell viability ([3]; 100 nM) [%] | cell viability ([3]; 1000 nM) [%] | cell viability ([3]; 10000 nM) [%] | cell viability ([4]; 1 nM) [%] | cell viability ([4]; 10 nM) [%] | cell viability ([4]; 100 nM) [%] | cell viability ([4]; 1000 nM) [%] | cell viability ([4]; 10000 nM) [%] | cell viability ([5]; 1 nM) [%] | cell viability ([5]; 10 nM) [%] | cell viability ([5]; 100 nM) [%] | cell viability ([5]; 1000 nM) [%] | cell viability ([5]; 10000 nM) [%] | drug sensitivity score [6] | drug sensitivity score [7] | drug sensitivity score [8] | drug sensitivity score [9] | drug sensitivity score [10] | relative viability EC50 [11] [µM] | relative viability EC50 [12] [µM] | relative viability EC50 [13] [µM] | relative viability EC50 [14] [µM] | relative viability EC50 [15] [µM]
1 | CC(C)N(CCC(=O)c1ccc2ccccc2c1)Cc1ccccc1 | 90.3 | 94.8 | 94.4 | 97.7 | 99.5 | 99.2 | 98.2 | 93.5 | 96.7 | 95 | 98.4 | 91.6 | 99 | 101 | 66.6 | 96.2 | 98.7 | 99 | 96.3 | 87 | 97.6 | 102 | 102 | 97.5 | 92.1 | 0 | 0 | 1.4 | 0.3 | 0 | > 10 | > 10 | > 10 | > 10 | –
2 | CC(CCc1ccc(O)cc1)NCC(O)c1ccc(O)cc1 (configuration not stated) [ractopamine] | 91.9 | 84.6 | 104 | 110 | 114 | 100 | 98.1 | 99.1 | 99.2 | 101 | – | – | – | – | – | 115 | 102 | 101 | 99.3 | 104 | 92.8 | 87.2 | 101 | 94.4 | 115 | 0 | 0 | – | 0 | 0 | > 10 | > 10 | > 10 | > 10 | –
3 | CC(C(=O)O)c1ccc(N2Cc3ccccc3C2=O)cc1 (configuration not stated) [indoprofen] | 91.9 | 97.8 | 99.5 | 96.5 | 93.8 | 95.8 | 97.6 | 103 | 100 | 102 | – | – | – | – | – | 95.9 | 99.6 | 97.8 | 99.4 | 105 | 84.3 | 104 | 97.1 | 92.9 | 94.1 | 0 | 0 | – | 0 | 0 | > 10 | > 10 | > 10 | > 10 | –
4 | CC(C)OC(=O)C(C)(C)Oc1ccc(C(=O)c2ccc(Cl)cc2)cc1 [fenofibrate] | – | – | – | – | – | 100 | 100 | 98.4 | 95.7 | 92.6 | – | – | – | – | – | – | – | – | – | – | 103 | 111 | 102 | 36.9 | 94.5 | – | 0 | – | – | 0 | – | > 10 | – | > 10 | –
5 | CNC(=O)c1cccc(NC(=O)N2CCC(Oc3ccccc3Cl)CC2)c1 | 94.3 | 100 | 93.2 | 102 | 82.7 | 94.9 | 103 | 97.3 | 99.6 | 91.4 | 99.1 | 101 | 92.4 | 79.3 | 50.5 | 102 | 99.5 | 97 | 89.9 | 91 | 80.3 | 99.6 | 86.4 | 99.4 | 101 | 0.3 | 0 | 4.8 | 0 | 0 | > 10 | > 10 | > 10 | > 10 | –
6 | C[C@]12CC[C@H](O)C[C@H]1CC[C@@H]1[C@@H]2CC[C@]2(C)[C@@](O)(c3ccoc3)CC[C@]12O [rostafuroxine] | 103 | 98 | 99.7 | 97.8 | 109 | 102 | 98.6 | 101 | 101 | 101 | – | – | – | – | – | 103 | 102 | 99.2 | 96.1 | 99.7 | 96.4 | 88.4 | 103 | 94.7 | 99.6 | 0 | 0 | – | 0 | 0 | > 10 | > 10 | > 10 | > 10 | –
7 | C[C@]12CC[C@@H](O)C[C@@H]1CC[C@@H]1[C@@H]2CC[C@]2(C)C(c3ccccc3)=CC[C@@H]12 [17-PA] | 95 | 87.9 | 87.5 | 104 | 82.6 | 96.1 | 101 | 96.4 | 103 | 102 | – | – | – | – | – | 98.1 | 89.2 | 99.6 | 93 | 107 | 101 | 106 | 94.2 | 94.7 | 99.8 | 0.3 | 0 | – | 0 | 0 | > 10 | > 10 | > 10 | > 10 | –
8 | CCc1c(-c2ccccc2)c(-c2ccccc2)nn1-c1ccccc1-c1cccc(OCC(=O)O)c1 | 102 | 105 | 97.8 | 113 | 91.5 | 99.7 | 101 | 98 | 105 | 97.4 | – | – | – | – | – | 102 | 103 | 103 | 101 | 97.9 | 93.4 | 94.7 | 101 | 94 | 86.3 | 0 | 0 | – | 0 | 0.5 | > 10 | > 10 | > 10 | > 10 | –
9 | COc1ccc2[nH]cc(C3=CCNCC3)c2c1 | 90.7 | 107 | 99.6 | 106 | 98.4 | 95.7 | 103 | 96 | 102 | 98.8 | – | – | – | – | – | 101 | 98.7 | 104 | 105 | 100 | 92.3 | 90 | 95.1 | 96.1 | 101 | 0 | 0 | – | 0 | 0 | > 10 | > 10 | > 10 | > 10 | –
10 | CN(c1ccc(NC(=O)Nc2ccccc2)cc1)S(=O)(=O)c1cnn(-c2ccc(F)cc2)c1 [BTT-3033] | 101 | 115 | 96.3 | 109 | 100 | 104 | 104 | 101 | 111 | 99.8 | – | – | – | – | – | – | – | – | – | – | 96.7 | 104 | 97.6 | 97.5 | 106 | 0 | 0 | – | – | 0 | > 10 | > 10 | – | > 10 | –
11 | COc1cc(OC)c(OC)cc1C=O [asaraldehyde] | 95.2 | 102 | 94.8 | 104 | 90.1 | 97.3 | 103 | 97.7 | 105 | 99 | – | – | – | – | – | 108 | 100 | 98.6 | 103 | 102 | 87 | 108 | 90.5 | 107 | 88.3 | 0 | 0 | – | 0 | 0 | > 10 | > 10 | > 10 | > 10 | –
12 | CC(=O)c1cc([N+](=O)[O-])c(Sc2cccc(Cl)c2Cl)s1 [P5091] | 100 | 90 | 98.8 | 87.2 | 52.1 | 95.9 | 97.3 | 97.9 | 96.9 | 60.4 | 95.7 | 97.9 | 93.3 | 105 | 93.7 | 99.4 | 97.5 | 97.2 | 99.7 | 90.4 | 110 | 93.3 | 93.5 | 96.9 | 106 | 4.5 | 2.4 | 0 | 0 | 0 | – | – | > 10 | > 10 | > 10
13 | Cc1ccccc1CN1C2=NCCN2C(=O)C2=C1CCN(Cc1ccccc1)C2 [TIC10] | 110 | 106 | 104 | 93.7 | 103 | – | – | – | – | – | – | – | – | – | – | 107 | 106 | 98.8 | 99.5 | 103 | 98.9 | 99.7 | 98 | 102 | 92.4 | 0 | – | – | 0 | 0 | > 10 | – | > 10 | > 10 | –
14 | COc1ccc(-c2oc3cc(OC)ccc3c2C(=O)c2ccc(C#N)cc2)cc1 | 99.7 | 96.4 | 95.3 | 93.6 | 87.2 | 98.2 | 103 | 95.2 | 101 | 95.4 | 107 | 96.8 | 109 | 92.8 | 74.4 | 104 | 101 | 101 | 96.4 | 99 | 96.4 | 98.8 | 101 | 106 | 102 | 0 | 0 | 2 | 0 | 0 | > 10 | > 10 | > 10 | > 10 | –
